Activity calls are given as the source filed them. No rule for the calls is given here.

This experiment is described as follows: modifiers of cytoskeleton assembly, confirmation, imaging, high-content imaging, retest and dose response (AID 1249).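 Also: compound exposure lasted 24 h before fixation; plate controls were untreated cells for no effect and reference compound treated cells for full effect.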 The conditions noted are these: cell-based imaging, cytoskeleton assembly phenotype, high content; at 2 µM; hits give high values.
With `COc1cccc(C(=O)COc2cccc(NC(=O)c3cccc([N+](=O)[O-])c3)c2)c1`, the inhibition (as a rule, the drop in the measured response relative to a control, in per cent) is -2.2% (inactive).

Regarding `O=C(OCn1ncc(Br)c(Br)c1=O)c1ccc(F)cc1`, the inhibition is 10.9% (inactive). The figure for `Cc1csc(NC(=O)CSc2nnc(-c3ccc(S(=O)(=O)N4CCCC4)cc3)o2)n1` is 4.6% (inactive); for `CC(C)(CO)NC(=O)CCCOc1ccc(Cl)cc1Cl` it is -0.1% (inactive). The figure for `Cc1nc(SCc2ccc(Br)cc2)[nH]c(=O)c1C` is -1.2% (inactive); for `CCOC(=O)c1ccc(CNC(=O)CCC(=O)O)cc1` it is -7% (inactive); for `COc1ccc(-c2nc(C#N)c(NCCCN(C)C)o2)cc1OC` it is 4.5% (inactive).

As to `C=CCOC(=O)C1=C(C)OC(N)=C(C#N)C12C(=O)N(CN1CCOCC1)c1ccccc12` (stereo not drawn), the inhibition was -12.8% (inactive). The figure for `COc1ccc2[nH]c(=O)c(CN(C(=O)c3ccncc3)C(C)C)cc2c1` is -5.6% (inactive).

`CCOC(=O)c1cnn(-c2nc3c(C)cccc3s2)c1C`: the inhibition is -1.2% (inactive). Consider `Cc1ccc(C)c(NC(=O)c2nnn(Cc3ccccc3)c2N)c1`, for which the inhibition is -0.1% (inactive). As to `CCOc1ccc(C=O)cc1CN1CCCCC1`, the inhibition is -10% (inactive). Under `C=CCN1C(=O)/C(=C2/Sc3ccccc3N2CCCS(=O)(=O)O)SC1=S` stands 0.3% (inactive); under `O=C(Nc1nccs1)c1cccc(N2C(=O)c3cccc4c([N+](=O)[O-])ccc(c34)C2=O)c1`, -8.2% (inactive); under `COc1cccc(CNC(=O)C(=O)NCC2CCCO2)c1` (stereo not drawn), -16.1% (inactive). As for `CCOc1ccc2ccccc2c1/C=N/n1cncn1`, the inhibition is 1.1% (inactive).

For `CN1CCCCc2c1[nH]c1ccccc1c2=O`, the inhibition was 5.2% (inactive). For the compound `O=S(=O)(c1cccs1)N1CCN(CC(O)COc2cccc(Br)c2)CC1` (stereo not drawn), the inhibition was 5.3% (inactive).

Take `COc1ccc(Cn2nnnc2C(c2cccs2)N2CCSCC2)cc1` (stereo not drawn): the inhibition is -3.9% (inactive). Turning to `Clc1ccc(-n2ncc3c(NCc4ccc5c(c4)OCO5)ncnc32)cc1`, the inhibition is 2.6% (inactive). For `Cc1ccccc1-c1nc(CN2CCC(C(=O)NCCCN3CC(C)CC(C)C3)CC2)c(C)o1` (stereo not drawn), the inhibition was 0.8% (inactive). Take `O=C(NC(Nc1nc2ccc([N+](=O)[O-])cc2s1)(C(F)(F)F)C(F)(F)F)c1ccccc1`: the inhibition is -15.3% (inactive). The figure for `O=C(COc1ncnc2sccc12)Nc1ccc2c(c1)OCCO2` is 1.1% (inactive); for `COC(=O)c1sccc1NC(=O)CCC1CCCC1` it is -0.4% (inactive).

Consider `C=CCn1c(SCC(=O)Nc2ccc(C(=O)OCC)cc2)nnc1-c1sc(N)nc1C`, for which the inhibition is -0.9% (inactive). Under `CCCc1sc(N/N=C/c2ccccn2)nc1-c1ccc(Br)cc1` stands -11.5% (inactive); under `O=C(NC1CC1)c1ccc(S(=O)(=O)NCC2CCCCC2)cc1`, -2.7% (inactive). With `Cc1csc(NC(=O)CSc2nnc(-c3cccs3)n2C)n1`, the inhibition was -10.1% (inactive). The figure for `Nc1nnc(SCC(=O)NCc2ccc3c(c2)OCO3)s1` is 3.6% (inactive); for `Cc1ccc(C(=O)c2cc([N+](=O)[O-])ccc2N2CCOCC2)c(C)c1` it is 3.2% (inactive); for `Cc1ccc(-n2nc3ccc(NC(=O)/C=C/c4ccco4)cc3n2)cc1C` it is -5.3% (inactive). The figure for `O=C(Nc1cnccn1)C1c2ccccc2Oc2ccccc21` is 9.9% (inactive); for `O=C(O)c1cc2nc3c(c(C(F)(F)F)n2n1)CCc1ccccc1-3` it is 3.7% (inactive); for `CCN1C(=O)c2cccc3c(S(=O)(=O)NCc4ccccn4)ccc1c23` it is -20.8% (inactive).

As for `CCOC(=O)C(C)Oc1cccc2c(=O)n(CC(=O)NCc3ccc4c(c3)OCO4)ccc12` (stereo not drawn), the inhibition was 1.3% (inactive). Under `COc1ccc(CN2C(=O)[C@@H]3C(c4ccc(F)cc4)=NO[C@@H]3C2=O)cc1` stands 6.5% (inactive); under `CCc1cccc(CC)c1N(COC)C(=O)Cn1ccccc1=N`, -4.4% (inactive). Consider `COc1ccc(S(=O)(=O)NC(CC(=O)NCc2ccco2)C(C)C)cc1` (stereo not drawn), for which the inhibition was -5.2% (inactive). `COc1ccc(CC(=O)Nc2ccc(-c3noc(-c4cccc(OC)c4)n3)cc2)cc1`: the inhibition is 13.6% (inactive).

`Cn1c(NC(=O)C2c3ccccc3Oc3ccccc32)cc(=O)n(C)c1=O`: the inhibition is -0.3% (inactive). Under `COc1ccc(C(=O)C(CN2CCOCC2)c2ccccc2)cc1` (stereo not drawn) stands 1.1% (inactive). The figure for `Cn1nc(C(=O)OCC(=O)N2CCc3ccccc32)c2ccccc2c1=O` is 4.3% (inactive); for `COC(=O)CCSc1nccn1Cc1ccccc1` it is -9.8% (inactive); for `CC/C(=N\NC(=O)CNC(=O)/C=C/c1ccco1)c1ccccc1` it is -9.3% (inactive). On to `Cc1ccc(C)c(NC(=S)NC(NC(=O)Cc2cccc3ccccc23)C(Cl)(Cl)Cl)c1` (stereo not drawn), for which the inhibition is -16% (inactive). Turning to `CCOc1cc(NC(=O)c2ccco2)c(OCC)cc1NC(=O)CCC(=O)NCc1cccnc1`, the inhibition is 5.4% (inactive).

With `CC(=O)c1cccc(NS(=O)(=O)c2c(C)noc2C)c1`, the inhibition was -13.9% (inactive).

With `CC(C)n1c(C(=O)OCC(=O)NCc2ccc3c(c2)OCO3)cc2sccc21`, the inhibition is 14.1% (inactive).

With `Cc1c(Cl)cccc1-n1ccnc1SCC(=O)O`, the inhibition is 2.2% (inactive). For `Nc1sccc1C(=O)c1ccc(Cl)cc1`, the inhibition was -15.5% (inactive). For the compound `COc1cc2c(cc1NS(=O)(=O)N1CCCC1)oc1ccccc12`, the inhibition was 2.5% (inactive). Under `O=C(COc1ccccc1)N1CCN(CC(O)COc2ccccc2)CC1` (stereo not drawn) stands 11.3% (inactive). Under `O=C(c1ccc2snnc2c1)N1CCSCC1` stands -15.8% (inactive); under `CCCCSc1nc(C)cc(SCC(=O)N/N=C/c2cccc(OC)c2O)n1`, -6.7% (inactive). Under `CCOC(=O)C1=C(c2ccccc2)O/C(=C(/C#N)C(F)(F)F)S1` stands 2.3% (inactive); under `O=[N+]([O-])c1ccc(/C=N/n2c(COc3ccccc3)n[nH]c2=S)cc1`, -4.5% (inactive); under `C/C=C/COC(=O)c1[nH]c2c(c1C)C(=O)CC(c1ccco1)C2` (stereo not drawn), -1.7% (inactive). Regarding `Cc1cccc(C(=O)Oc2ccccc2C2C[C@]3(C)CC(=O)NC3N2C(=O)c2cccc(C)c2)c1` (stereo partly drawn), the inhibition was -5.8% (inactive). Take `CCOC(=O)N1CCC(NC(=O)c2ccc(CS(=O)(=O)c3ccc(OC)cc3)o2)CC1`: the inhibition was -7.4% (inactive). For the compound `CCOc1cc(C(=O)Nc2cccc3ncccc23)cc(OCC)c1OCC`, the inhibition is -20.6% (inactive). Regarding `CCOc1cc(C(=O)OCC(=O)c2c(C)[nH]c3ccccc23)ccc1OCC(=O)N1CCOCC1`, the inhibition is -10.4% (inactive).

As for `C=CCc1ccccc1OCC(O)CNC` (stereo not drawn), the inhibition is 2.3% (inactive). With `Nn1c(SCC(=O)Nc2ccc3c(c2)OCCO3)nnc1C(F)(F)F`, the inhibition was -22.1% (inactive). The figure for `CN1C(=O)C(C(=O)NC(C)(C)C)C2c3ccccc3OC13CCCCC23` (stereo not drawn) is 1.7% (inactive); for `CCOC(=O)C1=C(CSc2nc3c(cc2C#N)CN(C)CC3)OC(N)=C(C#N)C1c1ccccc1` (stereo not drawn) it is 1.4% (inactive).

Take `CCc1ccc(-c2nc(CN3CCC(C(=O)NCc4ccco4)CC3)c(C)o2)cc1`: the inhibition is 9.2% (inactive).

On to `Cc1nc2ccccc2n1CCCOc1ccccc1`, for which the inhibition is 1% (inactive). Regarding `O=C(Nc1ccc(Oc2ccccc2)cc1)C1CCCN(c2ncccn2)C1` (stereo not drawn), the inhibition was 11.6% (inactive).

`N#Cc1c(N)nc(SCC(=O)NCc2ccc3c(c2)OCO3)c(C#N)c1-c1cccs1`: the inhibition was 0.2% (inactive). Under `CN1C(=O)C2(NCCc3c2[nH]c2ccccc32)c2ccccc21` (stereo not drawn) stands -6.1% (inactive); under `CC1=C([N+](=O)[O-])C(c2ccccc2)C2=C(N1)c1ccccc1C2=O` (stereo not drawn), 8.7% (inactive); under `COc1ccc(OC)c(NS(=O)(=O)c2ccc(N3CCCC3=O)cc2)c1`, -3.6% (inactive). In the case of `c1ccc(-n2ncc3c(NCc4ccccn4)ncnc32)cc1`, the inhibition is 24.5% (inactive). For the compound `CCOC(=O)c1ccc(-n2c(=S)sc3c(=O)[nH]c(C)nc32)cc1`, the inhibition was 3.6% (inactive).

Regarding `Cc1ccccc1OCC(=O)Nc1ccc2c(c1)COC2=O`, the inhibition is -15.6% (inactive). With `CCN1C(=O)CSC1=NC12CC3CC(CC(C3)C1)C2`, the inhibition is -5.5% (inactive). The figure for `COc1ccc(-c2nc(-c3ccc(NC(=O)c4ccc(Br)o4)cc3)no2)cc1OC` is -10.3% (inactive); for `O=S(=O)(Cc1ccccc1Cl)N1CCN(Cc2ccc3c(c2)OCO3)CC1` it is 41.5% (inactive); for `CN(C)c1nc(N(C)C)nc(N(C#N)CCOc2ccccc2)n1` it is -6.3% (inactive). The figure for `Cn1cc(-c2nnnn2-c2ccc(Cl)cc2)c(=O)c2ccccc21` is -6.6% (inactive); for `COc1ccc(CN2CCCCC2C(=O)Nc2ccc(OC)c(OCC(C)C)c2)cc1OC` (stereo not drawn) it is -2.9% (inactive); for `O=C1CCCc2c1[nH]c1ccc(Cl)cc21` it is -17.2% (inactive). Consider `CCCCOCCCNC(=O)c1cccs1`, for which the inhibition is -7.7% (inactive). The figure for `CC(C)(C)SCCNC(=O)CN(c1ccc(F)cc1)S(C)(=O)=O` is -2.5% (inactive); for `O=C(Nc1ccccc1)c1nnsc1S(=O)(=O)c1ccc(Cl)cc1` it is 5.3% (inactive). Under `CCN1CCC2(CC1)C(C#N)=C(N)Oc1c2sc2nc(C)cc(C)c12` stands -0.7% (inactive); under `CCCCC(=O)NC(=S)Nc1ccccc1C(=O)Nc1ccccc1`, 3.2% (inactive); under `CN(Cc1ccccc1)S(=O)(=O)c1ccc(NC(=S)NC(=O)C2CCCC2)cc1`, -1.4% (inactive).

Values taken from PubChem BioAssay AID1249 (Columbia University Molecular Screening Center, 2008).
